In patent US8507420B2, “Solvent composition” (Toyota Jidosha Kabushiki Kaisha, priority 2009, dated 2013):
“Also recorded” adds a separate entry of the source.

Legend:
[1] = Thermal stability of SOD mimetic compounds (retained SOD activity after thermal process in solvents/oils); assay type: physicochemical; settings: for decline in activity after thermal process: dehydrated ethanol, 60 minutes, FIG. 4; for retained activity / retained activity after thermal process: 120 minutes; for retained activity after thermal process: solvent not stated
From the text: (§1) In this example, Mn-cpx3, Mn-TBAP, Mn-TMPyP and Mn-TM-2-PyP were purchased from Aldrich Company, and were used as SOD mimetic compounds. These compounds are low-molecular complex having π-conjugate system. These compounds are basically water-soluble, and are also soluble in ethanol and in lubricating oils. In the case where an SOD mimetic compound was to be dissolved in ethylene glycol, and in a food oil containing vegetable sterol and glycerin ester as main components, the SOD mimetic compound was first dissolved in ethanol, and then the ethanol solution was added into ethylene glycol and a food oil. In the case where an SOD mimetic compound was to be dissolved in an engine oil (trade name: Eneos Motor Oil), the SOD mimetic compound was firstly dissolved in dimethyl sulfoxide (DMSO), and then the DMSO solution was added into the engine oil. As for the concentration conditions for thermal stability, investigation was performed in the presence of 1 to 10 μg/mL of an SOD mimetic compound in the water-based solution and 10 to 50 μg/mL of an SOD mimetic compound in the oil-based solution, with 10% of ethanol or DMSO, in the temperature range of 50 to 140° C.
The SOD activity of the SOD mimetic compounds was measured by using as an index the oxidation of a water-soluble tetrazolium salt (WST) by oxygen radicals generated from xanthin-xanthin oxidase. Specifically, the WST was used as a substrate of the oxidation by oxygen radicals, and the activity measurement was performed by using as an index the difference in the production of water-soluble tetrazolium formazan made by the presence and the absence of the SOD mimetic compound (see the following document: H. Ueda, D. Kawana, S. Maeda and M. Sawamura, Biosci. Biotechnol. Biochem., 63, 485-488, 1999). As the WST is oxidized to become water-soluble tetrazolium formazan, ultraviolet absorption occurs at 450 nm. Therefore, by measuring this ultraviolet absorption, the oxidation reaction by oxygen radicals can easily be measured. The activity measurement buffer was a 35 mM sodium carbonate solution (pH 10.2) containing 0.17 mM of xanthin and 0.11 mM of EDTA. The oxidation substrate used was 0.24 mM of the WST. The SOD mimetic compounds were dissolved in ethanol or DMSO. The concentrations thereof at the time of measurement of activity were 0.1 to 0.8 μg/mL.
In this example, the vegetable food oil used was diacyl glycerol. Mn-TMPyP retained 50% of the activity at 70° C. after 120 minutes, and 40% of the activity at 100° C. after 120 minutes. […] It has become clear that Mn-cpx3 is particularly excellent in the SOD-mimetic activity and the thermal stability in food oil.
With regard to Mn-cpx3, which was considered to be the most excellent in activity and thermal stability, the stability thereof in other oil solutions was investigated. […] However, in engine oil, the stability sharply declines to about 10 to 20%.

[2] = SOD activity measurement (WST oxidation by oxygen radicals from xanthin-xanthin oxidase, absorption at 450 nm); assay type: biochemical; settings: FIG. 2
From the text: In this activity measurement system, the WST used as the oxidation substrate can be considered to be a model compound as the substance that is subject to oxidation by oxygen radicals, that is, as the functional substance. […]

[3] = Solubility of SOD mimetic compounds in water, ethanol, oils; assay type: physicochemical; settings: solvent as stated in value
From the text: as §1

[4] = vegetable food oil (diacyl glycerol), 100° C., FIG. 5

Compound	decline in activity after thermal process ([1]; 70° C.)	retained activity ([1]; vegetable food oil (diacyl glycerol), 70° C., FIG. 5)	retained activity [1, 4]	relative activity per unit weight with reference to the enzyme activity of the PEG-modified A. per SOD ([2]; after the process in ethanol at 50° C. for 10 minutes)	relative activity per unit weight with reference to the enzyme activity of the PEG-modified A. per SOD ([2]; in water)	retained activity after thermal process ([1]; 50° C.)	retained activity after thermal process ([1]; 100° C.)	retained activity ([1]; ethylene glycol, 140° C., FIG. 6)	retained activity ([1]; vegetable food oil (diacyl glycerol), 140° C., FIG. 5)	stability in water-based ethanol ([1]; water-based ethanol)	solubility [3]
O=C(O)c1ccc(C2=C3C=CC(=N3)C(c3ccc(C(=O)O)cc3)=c3ccc([nH]3)=C(c3ccc(C(=O)O)cc3)c3ccc([n-]3)C(c3ccc(C(=O)O)cc3)c3ccc2[n-]3)cc1.[Cl-].[Mn+3] (stereo not shown) [Mn-TBAP, Mn(III) tetrakis(4-benzoic acid)porphyrin chloride]	substantially no decline in the activity	–	–	–	–	–	–	–	–	–	–
C[n+]1ccc(-c2c3nc(c(-c4cc[n+](C)cc4)c4ccc([nH]4)c(-c4cc[n+](C)cc4)c4nc(c(-c5cc[n+](C)cc5)c5ccc2[nH]5)C=C4)C=C3)cc1.[Mn+3] [Mn-TMPyP, Mn(III) tetrakis(1-methyl-4-pyridyl)porphyrin]	–	50%	40%	–	–	–	–	–	–	–	–
manganese (Mn) complex of 7-hydroxyflavone [Mn-cpx3]	substantially no decline in the activity	–	60%	850 times	460 times	~100%	≥ 70%	70%	50%	highly stable	soluble in ethylene glycol and in vegetable oil; also recorded: soluble even in oil solutions
